# Measurements from patent publication US11242351B2, “Tricyclic inhibitors of the BCL6 BTB domain protein-protein interaction and uses thereof” (priority 2017, dated 2022).
# Read-outs that look alike come from different tables or passages of the source.
# Assays:
# [1] = target: BCL6 BTB domain (biotin-thrombin-BCL6 amino acids 1-129) (Homo sapiens (Human), UniProt P41182); experiment: Surface Plasmon Resonance (SPR) assay; format: binding; settings: Biacore T200, single cycle kinetic analysis
# Experimental: Surface Plasmon Resonance (SPR) Assay
# SPR studies were performed using a Biacore™ T200 instrument (GE Health Sciences Inc.). […] The Biacore flow rate was set at 100 μl/min. […] Curve fitting and KD calculations were performed with the Biacore T200 Evaluation software (GE Health Sciences Inc).
# [2] = tested on: BCL6 reporter construct in SuDHL4-3×BCL6-TK-Luc cells; experiment: Cell-based luciferase assay (BCL6 reporter); settings: 48 h, read-out: Luc IC50
# Summary of the method: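 SuDHL4 cells stably carrying a 3×BCL6-site TK-promoter firefly luciferase reporter, 15,000 cells/well, dosed over 10 concentrations (top 10 μM) and cultured two days at 37° C, 5% CO2. Luciferase luminescence read after room-temperature equilibration with neolite reagent.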
# Karpas422 cells = experiment: Tumor cell growth inhibition assay; format: cell-based; settings: Homo sapiens, KARPAS-422, 144 h, read-out: GI Karpas EC50
# Summary of the method: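 Karpas422 cells were dosed over a 10-point concentration range (top 5 μM) and grown 6 days at 37 °C, 5% CO2, in Alpha-MEM with 10% FBS. Viability was read as ATPlite luminescence.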
# [3] = SuDHL4-3×BCL6-TK-Luc cells, two days
# [4] = Karpas422 cells, six days, ATPlite
Compound,Kd [1],"IC50 [2, 3]",EC50 (Karpas422 cells; [4]),IC50 [2],EC50 (Karpas422 cells)
"CCN1CCN(c2cc(NC(=O)Cn3cc(-c4cc(C(N)=O)c(O)c(F)c4F)c4c(=O)n5c(nc43)CCCCC5)c(Cl)c(F)n2)[C@@H](C)C1 [I-52, (S)-5-(1-(2-((3-chloro-6-(4-ethyl-2-methyl-piperazin-1-yl)-2-fluoropyridin-4-yl)amino)-2-oxoethyl)-4-oxo-4,6,7,8,9,10-hexahydro-1H-pyrrolo [2′,3′:4,5]pyrimido [1,2-a]azepin-3-yl)-3,4-difluoro-2-hydroxy-benzamide]",76.5 nM,820 nM,1670 nM,–,–
"C[C@H]1CNCCN1c1cc(NC(=O)Cn2cc(-c3cc(C(N)=O)c(O)c(F)c3F)c3c(=O)n4c(nc32)CCC4)c(Cl)c(F)n1 [I-53, (S)-5-(1-(2-((3-chloro-2-fluoro-6-(2-methyl-piperazin-1-yl)pyridin-4-yl)amino)-2-oxo-ethyl)-4-oxo-4,6,7,8-tetrahydro-1H-dipyrrolo [1,2-a:2′,3′-d]pyrimidin-3-yl)-3,4-difluoro-2-hydroxybenzamide]",5.83 nM,504 nM,646 nM,–,–
"C[C@H]1CN(C)C[C@H](C)N1c1cc(NC(=O)Cn2cc(-c3cc(C(N)=O)c(O)c(F)c3F)c3c(=O)n4c(nc32)CCC4)c(Cl)cn1 [I-54, 5-(1-(2-((5-chloro-2-((2S,6S)-2,4,6-trimethylpiperazin-1-yl)pyridin-4-yl)amino)-2-oxoethyl)-4-oxo-4,6,7,8-tetrahydro-1H-dipyrrolo[1,2-a:2′,3′-d]pyrimidin-3-yl)-3,4-difluoro-2-hydroxy-benzamide]",97.6 nM,–,–,5980 nM,2000 nM
"C[C@H]1CN(C)CCN1c1cc(NC(=O)Cn2cc(-c3cc(F)c(O)c(C(N)=O)c3)c3c(=O)n4c(nc32)CCC4)c(Cl)c(F)n1 [I-55, (S)-5-(1-(2-((3-chloro-6-(2,4-dimethyl-piperazin-1-yl)-2-fluoropyridin-4-yl)amino)-2-oxoethyl)-4-oxo-4,6,7,8-tetrahydro-1H-dipyrrolo [1,2-a:2′,3′-d]pyrimidin-3-yl)-3-fluoro-2-hydroxybenzamide]",1.5 nM,–,–,13.5 nM,16.6 nM
"CN1C[C@H]2CC[C@@H](C1)N2c1cc(NC(=O)Cn2cc(-c3cc(C(N)=O)c(O)c(F)c3F)c3c(=O)n4c(nc32)CCC4)c(Cl)cn1 [I-56, 5-(1-(2-((5-chloro-2-((1R,5S)-3-methyl-3,8-diazabicyclo[3.2.1]octan-8-yl)pyridin-4-yl)amino)-2-oxoethyl)-4-oxo-4,6,7,8-tetrahydro-1H-dipyrrolo[1,2-a:2′,3′-d]pyrimidin-3-yl)-3,4-difluoro-2-hydroxy-benzamide]",38.7 nM,684 nM,586 nM,–,–
"C[C@H]1CN(C)CCN1c1cc(NC(=O)Cn2cc(-c3cc(C(N)=O)c(O)c(F)c3F)c3c(=O)n4c(nc32)CC(C)(C)C4)c(Cl)c(F)n1 [I-57, (S)-5-(1-(2-((3-chloro-6-(2,4-dimethyl-piperazin-1-yl)-2-fluoropyridin-4-yl)amino)-2-oxoethyl)-7,7-dimethyl-4-oxo-4,6,7,8-tetrahydro-1H-dipyrrolo[1,2-a:2′,3′-d]pyrimidin-3-yl)-3,4-difluoro-2-hydroxy-benzamide]",11.2 nM,–,–,114 nM,62.1 nM
"C[C@H]1COCCN1c1cc(NC(=O)Cn2cc(-c3cc(C(N)=O)c(O)c(F)c3F)c3c(=O)n4c(nc32)CC(C)(C)C4)c(Cl)c(F)n1 [I-58, (S)-5-(1-(2-((3-chloro-2-fluoro-6-(3-methyl-morpholino)pyridin-4-yl)amino)-2-oxoethyl)-7,7-dimethyl-4-oxo-4,6,7,8-tetrahydro-1H-dipyrrolo[1,2-a:2′,3′-d]pyrimidin-3-yl)-3,4-difluoro-2-hydroxy-benzamide]",28.7 nM,190 nM,96.2 nM,–,–
"C[C@H]1COCCN1c1cc(NC(=O)Cn2cc(-c3cc(Cl)c(O)c(C(N)=O)c3)c3c(=O)n4c(nc32)CC(C)(C)C4)c(Cl)c(F)n1 [I-59, (S)-3-chloro-5-(1-(2-((3-chloro-2-fluoro-6-(3-methylmorpho-lino)pyridin-4-yl)amino)-2-oxoethyl)-7,7-dimethyl-4-oxo-4,6,7,8-tetrahydro-1H-dipyrrolo[1,2-a:2′,3′-d]pyrimidin-3-yl)-2-hydroxybenzamide]",23.4 nM,190 nM,48.8 nM,–,–
"C[C@H]1CN(C)CCN1c1cc(NC(=O)Cn2cc(-c3cc(Cl)c(O)c(C(N)=O)c3)c3c(=O)n4c(nc32)CC(C)(C)C4)c(Cl)c(F)n1 [I-60, (S)-3-chloro-5-(1-(2-((3-chloro-6-(2,4-dimethylpiperazin-1-yl)-2-fluoropyridin-4-yl)amino)-2-oxoethyl)-7,7-dimethyl-4-oxo-4,6,7,8-tetrahydro-1H-dipyrrolo[1,2-a:2′,3′-d]pyrimidin-3-yl)-2-hydroxybenzamide]",13.4 nM,–,–,186 nM,97.2 nM
"C[C@H]1CN(C)CCN1c1cc(NC(=O)Cn2cc(-c3cc(Cl)c(O)c(C(N)=O)c3)c3c(=O)n4c(nc32)CCC4)c(Cl)c(F)n1 [I-61, (S)-3-chloro-5-(1-(2-((3-chloro-6-(2,4-dimethylpiperazin-1-yl)-2-fluoropyridin-4-yl)amino)-2-oxoethyl)-4-oxo-4,6,7,8-tetrahydro-1H-dipyrrolo[1,2-a:2′,3′-d]pyrimidin-3-yl)-2-hydroxybenzamide]",3.71 nM,41.7 nM,22.2 nM,–,–
"C[C@H]1COCCN1c1cc(NC(=O)Cn2cc(-c3cc(Cl)c(O)c(C(N)=O)c3)c3c(=O)n4c(nc32)CCC4)c(Cl)c(F)n1 [I-62, (S)-3-chloro-5-(1-(2-((3-chloro-2-fluoro-6-(3-methylmorpho-lino)pyridin-4-yl)amino)-2-oxoethyl)-4-oxo-4,6,7,8-tetra-hydro-1H-dipyrrolo [1,2-a:2′,3′-d]pyrimi-din-3-yl)-2-hydroxybenzamide]",7.17 nM,78.5 nM,31.2 nM,–,–
"CC1Cc2nc3c(c(-c4cc(C(N)=O)c(O)c(F)c4F)cn3CC(=O)Nc3cc(N4CCN(C)C[C@@H]4C)nc(F)c3Cl)c(=O)n2C1 (stereo partly drawn) [I-63, 5-(1-(2-((3-chloro-6-((S)-2,4-dimethyl-piperazin-1-yl)-2-fluoropyridin-4-yl)amino)-2-oxoethyl)-7-methyl-4-oxo-4,6,7,8-tetrahydro-1H-dipyrrolo[1,2-a:2′,3′-d]pyrimidin-3-yl)-3,4-difluoro-2-hydroxy-benzamide]",10.2 nM,110 nM,120 nM,–,–
"CC1Cc2nc3c(c(-c4cc(C(N)=O)c(O)c(F)c4F)cn3CC(=O)Nc3cc(N4CCOC[C@@H]4C)nc(F)c3Cl)c(=O)n2C1 (stereo partly drawn) [I-64, 5-(1-(2-((3-chloro-2-fluoro-6-((S)-3-methylmorpholino)pyridin-4-yl)amino)-2-oxoethyl)-7-methyl-4-oxo-4,6,7,8-tetrahydro-1H-dipyrrolo [1,2-a:2′,3′-d]pyrimidin-3-yl)-3,4-difluoro-2-hydroxybenzamide]",27.4 nM,380 nM,174 nM,–,–
"CC1Cc2nc3c(c(-c4cc(Cl)c(O)c(C(N)=O)c4)cn3CC(=O)Nc3cc(N4CCN(C)C[C@@H]4C)nc(F)c3Cl)c(=O)n2C1 (stereo partly drawn) [I-65, 3-chloro-5-(1-(2-((3-chloro-6-((S)-2,4-dimethylpiperazin-1-yl)-2-fluoropyridin-4-yl)amino)-2-oxo-ethyl)-7-methyl-4-oxo-4,6,7,8-tetra-hydro-1H-dipyrrolo [1,2-a:2′,3′-d]pyrimi-din-3-yl)-2-hydroxy-benzamide]",6.28 nM,46.8 nM,42.1 nM,–,–
"CC1Cc2nc3c(c(-c4cc(Cl)c(O)c(C(N)=O)c4)cn3CC(=O)Nc3cc(N4CCOC[C@@H]4C)nc(F)c3Cl)c(=O)n2C1 (stereo partly drawn) [I-66, 3-chloro-5-(1-(2-((3-chloro-2-fluoro-6-((S)-3-methylmor-pholino)pyridin-4-yl)amino)-2-oxo-ethyl)-7-methyl-4-oxo-4,6,7,8-tetra-hydro-1H-dipyrrolo [1,2-a:2′,3′-d]pyrimi-din-3-yl)-2-hydroxy-benzamide]",15.9 nM,186 nM,74.2 nM,–,–
"C[C@H]1CN(C)CCN1c1cc(NC(=O)Cn2cc(-c3cc(C#N)c(O)c4c3OCO4)c3c(=O)n4c(nc32)CCC4)c(Cl)c(F)n1 [I-67, (S)-N-(3-chloro-6-(2,4-dimethyl-piperazin-1-yl)-2-fluoropyridin-4-yl)-2-(3-(6-cyano-7-hydroxybenzo[d][1,3]dioxol-4-yl)-4-oxo-4,6,7,8-tetrahydro-1H-dipyrrolo[1,2-a:2′,3′-d]pyrimidin-1-yl) acetamide]",6.72 nM,–,–,541 nM,874 nM
"COc1c(-c2cn(CC(=O)Nc3cc(N4CCN(C)C[C@@H]4C)nc(F)c3Cl)c3nc4n(c(=O)c23)CCC4)cc(C(N)=O)c(O)c1OC [I-68, (S)-5-(1-(2-((3-chloro-6-(2,4-dimethylpiperazin-1-yl)-2-fluoro-pyridin-4-yl)amino)-2-oxoethyl)-4-oxo-4,6,7,8-tetrahydro-1H-dipyrrolo[1,2-a:2′,3′-d]pyrimidin-3-yl)-2-hydroxy-3,4-dimethoxy-benzamide]",31.3 nM,–,–,3420 nM,1620 nM
"COc1c(-c2cn(CC(=O)Nc3cc(N4CCOC[C@@H]4C)ncc3Cl)c3nc4n(c(=O)c23)CCC4)cc(C(N)=O)c(O)c1OC [I-69, (S)-5-(1-(2-((5-chloro-2-(3-methylmorpholino)pyridin-4-yl)amino)-2-oxoethyl)-4-oxo-4,6,7,8-tetrahydro-1H-dipyrrolo[1,2-a:2′,3′-d]pyrimidin-3-yl)-2-hydroxy-3,4-dimethoxy-benzamide]",294 nM,7970 nM,10000 nM,–,–
